Consider 17 compounds from patent publication US20250115620A1, “BRIDGED TRICYCLIC CARBAMOYLPYRIDONE COMPOUNDS AND USES THEREOF” (Gilead Sciences, Inc., priority 2022, published 2025).

Data set [1] can be described thus: in vitro. The conditions noted are these: human, uninfected MT-4 cells.
In data set [2] the test system is pLAI reporter virus. As to the kind of experiment: microbe, parasite or virus in culture. The conditions noted are these: Human immunodeficiency virus 1, MT4, 72 h. Format: cell-based, HIV.
For data set [3], the system named is HIV-1 (IIIB). As to the kind of experiment: microbe, parasite or virus in culture. The data set is classed as cell-based. The conditions noted are these: Human immunodeficiency virus 1, IIIB, MT4, 120 h, HIV-1 (IIIB) in MT-4 cells, 5 days incubation, Cell Titer Glo; read-out: MT4 EC50.
Method: Compounds were tested in a high-throughput 384-well assay format for their ability to inhibit the replication of HIV-1 (IIIB) in MT-4 cells. Compounds were serially diluted (1:3) in DMSO on 384-well polypropylene plates and further diluted 200-fold into complete RPMI media (10% FBS, 1% P/S) using the Biotek Micro Flow and Labcyte ECHO acoustic dispenser. Each plate contained up to 8 test compounds, with negative (No Drug Control) and 5 μM AZT positive controls. MT-4 cells were pre-infected with 10 μL of either RPMI (mock-infected) or a fresh 1:250 dilution of HIV-1 IIIB concentrated virus stock. Infected and uninfected MT-4 cells were further diluted in complete RPMI media and added to each plate using a Micro Flow dispenser. After 5 days incubation in a humidified and temperature controlled incubator (37° C.), Cell Titer Glo (Promega) was added to the assay plates and chemiluminescence read using an Envision plate-reader.

Like-named read-outs stand apart in the source and are kept apart here. A value given as a limit tells only on which side of the number the result lay.

Regarding `COC[C@@H]1CO[C@]2(CC[C@H](C)N3C[C@H]2n2cc(C(=O)NCc4c(F)cc(F)cc4F)c(=O)c(O)c2C3=O)O1` (single isomer, unassigned) [168 (peak 2)], it took 37000 nM to reach half-maximal cytotoxicity in data set [1] (CC50 at 5 days). Further, the 50% effective concentration (EC50) in data set [2] (read-out: RLUC 50% HS EC50) turned out to be 16.4 nM; in data set [2] (read-out: RLUC CCM EC50), 0.6 nM; in data set [3], 2 nM.
In the case of `CC1=NO[C@]2(CC[C@H](C)N3C[C@H]2n2cc(C(=O)NCc4ccc(F)cc4F)c(=O)c(O)c2C3=O)C1O` (stereo partly drawn) [Example 24, (3′S,5S,7′R)—N-(2,4-difluorobenzyl)-4,12′-dihydroxy-3,3′-dimethyl-1′,11′-dioxo-1′,4′,5′,11′-tetrahydro-3′H,4H,7′H-spiro[isoxazole-5,6′-[2,7]methanopyrido[1,2-a][1,4]diazonine]-10′-carboxamide], the CC50 at 5 days in data set [1] was ≥ 50000 nM. Further, the EC50 in data set [2] (read-out: RLUC 50% HS EC50) came to 4.9 nM; in data set [2] (read-out: RLUC CCM EC50), 2.8 nM; in data set [3] it was 5.9 nM.
Taken in the same sequence, the figures for `CC1=N[C@]2(CC[C@H](C)N3C[C@H]2n2cc(C(=O)NCc4ccc(F)cc4F)c(=O)c(O)c2C3=O)ON1C` [Example 149b, (3′S,5R,7′R)—N-(2,4-difluorobenzyl)-12′-hydroxy-2,3,3′-trimethyl-1′,11′-dioxo-1′,4′,5′,11′-tetrahydro-2H,3′H,7′H-spiro[[1,2,4]oxadiazole-5,6′-[2,7]methanopyrido[1,2-a][1,4]diazonine]-10′-carboxamide] were 39100 nM, 5.7 nM, 0.4 nM and 1.4 nM.
`CO[C@H]1CS[C@]2(CC[C@H](C)N3C[C@H]2n2cc(C(=O)NCc4c(F)cc(F)cc4F)c(=O)c(O)c2C3=O)O1` (single isomer, unassigned) [170 (peak 1)]: the CC50 at 5 days in data set [1] is 42000 nM. For the same compound, the EC50 amounted to 5 nM in data set [2] (read-out: RLUC 50% HS EC50), 0.3 nM in data set [2] (read-out: RLUC CCM EC50) and 1.3 nM in data set [3].
Taken in the same sequence, the figures for `CO[C@@H]1CS[C@]2(CC[C@H](C)N3C[C@H]2n2cc(C(=O)NCc4c(F)cc(F)cc4F)c(=O)c(O)c2C3=O)O1` (single isomer, unassigned) [170 (peak 2)] were 42600 nM, 2.6 nM, 0.2 nM and 1.7 nM.
`COC1=NO[C@@]2(CC[C@H](C)N3C[C@H]2n2cc(C(=O)NCc4c(F)cc(F)cc4F)c(=O)c(O)c2C3=O)[C@@H]1F` [Example 86, (3′S,4S,5R,7′R)-4-fluoro-12′-hydroxy-3-methoxy-3′-methyl-1′,11′-dioxo-N-(2,4,6-trifluorobenzyl)-1′,4′,5′,11′-tetrahydro-3′H,4H,7′H-spiro[isoxazole-5,6′-[2,7]methanopyrido[1,2-a][1,4]diazonine]-10′-carboxamide] gave a cytotoxic concentration (CC50) at 5 days in data set [1] of 11900 nM. For the same compound, the EC50 in data set [2] (read-out: RLUC 50% HS EC50) was 68.4 nM; in data set [2] (read-out: RLUC CCM EC50) it was 0.3 nM; in data set [3], 1.2 nM.
Taken in the same sequence, the figures for `CC1C[C@@]2(CC[C@H](C)N3C[C@H]2n2cc(C(=O)NCc4c(F)cc(F)cc4F)c(=O)c(O)c2C3=O)OCO1` (stereo partly drawn) [Example 124, (3′S,4R,7′R)-12′-hydroxy-3′,6-dimethyl-1′,11′-dioxo-N-(2,4,6-trifluorobenzyl)-1′,4′,5′,11′-tetrahydro-3′H,7′H-spiro[[1,3]dioxane-4,6′-[2,7]methanopyrido[1,2-a][1,4]diazonine]-10′-carboxamide] were 29800 nM, 0.4 nM, 0.2 nM and 0.8 nM.
Taken in the same sequence, the figures for `C[C@H]1CC[C@@]2(COCCO2)[C@H]2CN1C(=O)c1c(O)c(=O)c(C(=O)NCc3c(F)cc(F)cc3F)cn12` [Example 140, (2S,3′S,7′R)-12′-hydroxy-3′-methyl-1′,11′-dioxo-N-(2,4,6-trifluorobenzyl)-1′,4′,5′,11′-tetrahydro-3′H,7′H-spiro[[1,4]dioxane-2,6′-[2,7]methanopyrido[1,2-a][1,4]diazonine]-10′-carboxamide] were 22800 nM, 1.7 nM, 0.1 nM and 1.8 nM.
For the compound `C[C@H]1CC[C@]2(CC(CO)=NO2)[C@H]2CN1C(=O)c1c(O)c(=O)c(C(=O)NCc3ccc(F)cc3F)cn12` [Example 16, (3′S,5S,7′R)—N-(2,4-difluorobenzyl)-12′-hydroxy-3-(hydroxymethyl)-3′-methyl-1′,11′-dioxo-1′,4′,5′,11′-tetrahydro-3′H,4H,7′H-spiro[isoxazole-5,6′-[2,7]methanopyrido[1,2-a][1,4]diazonine]-10′-carboxamide], in data set [1], the CC50 at 5 days was found to be 49400 nM. Further, the concentration giving a half-maximal response (EC50) was determined as 52.9 nM in data set [2] (read-out: RLUC 50% HS EC50), 2.8 nM in data set [2] (read-out: RLUC CCM EC50) and 2.6 nM in data set [3].
Taken in the same sequence, the figures for `C[C@H]1CC[C@]2(CC(=O)N(C)C2)[C@H]2CN1C(=O)c1c(O)c(=O)c(C(=O)NCc3c(F)cc(F)cc3F)cn12` [Example 61, (3R,3′S,7′S)-12′-hydroxy-1,3′-dimethyl-1′,5,11′-trioxo-N-(2,4,6-trifluorobenzyl)-1′,4′,5′,11′-tetrahydro-3′H,7′H-spiro[pyrrolidine-3,6′-[2,7]methanopyrido[1,2-a][1,4]diazonine]-10′-carboxamide] were ≥ 50000 nM, 3.4 nM, 1.9 nM and 7.6 nM.
In turn, `C[C@H]1CC[C@]2(CC(Br)=NO2)[C@H]2CN1C(=O)c1c(O)c(=O)c(C(=O)NCc3ccc(F)cc3F)cn12` [Example 44, (3′S,5S,7′R)-3-bromo-N-(2,4-difluorobenzyl)-12′-hydroxy-3′-methyl-1′,11′-dioxo-1′,4′,5′,11′-tetrahydro-3′H,4H,7′H-spiro[isoxazole-5,6′-[2,7]methanopyrido[1,2-a][1,4]diazonine]-10′-carboxamide] had a half-maximal cytotoxic concentration (CC50) at 5 days in data set [1] of 24400 nM. The EC50 was determined as 160 nM in data set [2] (read-out: RLUC 50% HS EC50), 0.1 nM in data set [2] (read-out: RLUC CCM EC50) and 0.7 nM in data set [3].
Taken in the same sequence, the figures for `C[C@H]1CC[C@]2(CC(=O)NO2)[C@H]2CN1C(=O)c1c(O)c(=O)c(C(=O)NCc3c(F)cc(F)cc3F)cn12` [Example 101, (3′S,5S,7′R)-12′-hydroxy-3′-methyl-1′,3,11′-trioxo-N-(2,4,6-trifluorobenzyl)-1′,4′,5′,11′-tetrahydro-3′H,7′H-spiro[isoxazolidine-5,6′-[2,7]methanopyrido[1,2-a][1,4]diazonine]-10′-carboxamide] were ≥ 50000 nM, 408 nM, 34 nM and 98.1 nM.
Taken in the same sequence, the figures for `COC1=NO[C@@]2(CC[C@H](C)N3C[C@H]2n2cc(C(=O)NCc4cc(F)c(F)cc4F)c(=O)c(O)c2C3=O)C1` [Example 65, (3′S,5S,7′R)-12′-hydroxy-3-methoxy-3′-methyl-1′,11′-dioxo-N-(2,4,5-trifluorobenzyl)-1′,4′,5′,11′-tetrahydro-3′H,4H,7′H-spiro[isoxazole-5,6′-[2,7]methanopyrido[1,2-a][1,4]diazonine]-10′-carboxamide] were 26300 nM, 107 nM, 0.6 nM and 1.6 nM.
Taken in the same sequence, the figures for `C[C@H]1CC[C@@]2(CC(CF)=NO2)[C@H]2CN1C(=O)c1c(O)c(=O)c(C(=O)NCc3ccc(F)cc3F)cn12` [Example 18, (3′S,5R,7′R)—N-(2,4-difluorobenzyl)-3-(fluoromethyl)-12′-hydroxy-3′-methyl-1′,11′-dioxo-1′,4′,5′,11′-tetrahydro-3′H,4H,7′H-spiro[isoxazole-5,6′-[2,7]methanopyrido[1,2-a][1,4]diazonine]-10′-carboxamide] were ≥ 50000 nM, 2.4 nM, 1.6 nM and 4.5 nM.
In the case of `CC1=NCC2(CC[C@H](C)N3C[C@H]2n2cc(C(=O)NCc4ccc(F)cc4F)c(=O)c(O)c2C3=O)O1` (stereo partly drawn) [Example 56, (3′S,7′R)—N-(2,4-difluorobenzyl)-12′-hydroxy-2,3′-dimethyl-1′,11′-dioxo-1′,4′,5′,11′-tetrahydro-3′H,4H,7′H-spiro[oxazole-5,6′-[2,7]methanopyrido[1,2-a][1,4]diazonine]-10′-carboxamide], in data set [1], the cytotoxic concentration (CC50) at 5 days was ≥ 50000 nM. The results for the concentration for a half-maximal effect (EC50) in data set [2] (read-out: RLUC 50% HS EC50), in data set [2] (read-out: RLUC CCM EC50) and in data set [3] were 5 nM, 3.4 nM and 6.2 nM, respectively.
Taken in the same sequence, the figures for `COC1=NO[C@@]2(CC[C@H](C)N3C[C@H]2n2cc(C(=O)NCc4c(F)cc(F)cc4F)c(=O)c(O)c2C3=O)C1` [Example 36, (3′S,5S,7′R)-12′-hydroxy-3-methoxy-3′-methyl-1′,11′-dioxo-N-(2,4,6-trifluorobenzyl)-1′,4′,5′,11′-tetrahydro-3′H,4H,7′H-spiro[isoxazole-5,6′-[2,7]methanopyrido[1,2-a][1,4]diazonine]-10′-carboxamide] were 19500 nM, 27.6 nM, 0.2 nM and 0.7 nM.
Taken in the same sequence, the figures for `C[C@H]1CC[C@]2(CC(CF)=NO2)[C@H]2CN1C(=O)c1c(O)c(=O)c(C(=O)NCc3ccc(F)cc3F)cn12` [Example 17, (3′S,5S,7′R)—N-(2,4-difluorobenzyl)-3-(fluoromethyl)-12′-hydroxy-3′-methyl-1′,11′-dioxo-1′,4′,5′,11′-tetrahydro-3′H,4H,7′H-spiro[isoxazole-5,6′-[2,7]methanopyrido[1,2-a][1,4]diazonine]-10′-carboxamide] were 20500 nM, 226 nM, 0.2 nM and 0.6 nM.

Broadly, the CC50 is the concentration at which the toxic effect on the cells reaches its halfway point. Read a high CC50 as better tolerance by the cells. The term EC50 denotes the concentration at which the effect is half-maximal.
